Tests used:
mouse vas deferens = mouse vas deferens adrenergic transmission test (MVD); conditions: for IC50: concentration producing 50% of the maximum response; for MVD percent inhibition: 10 μM
Source text: (§1) The test procedures used to determine the analgesic activities of the compounds have been described in detail in the prior art and are as follows: The acetylcholine-induced abdominal constriction test, which is a primary analgesic screening test designed to measure the ability of a test agent to suppress acetylcholine-induced abdominal constriction in mice, described by Collier et al., Brit. J. Pharmacol. Chemotherap. 32, 295 (1968); a modification of the anti-bradykinin test, which is also a primary analgesic screening procedure, described by Berkowitz et al., J. Pharmacol. Exptl Therap. 177, 500-508 (1971), Blane et al., J. Pharm. Pharmacol 19, 367-373 (1967), Botha et al., Eur. J. Pharmacol. 6, 312-321 (1969) and Deffenu et al., J. Pharm. Pharmacol. 18, 135 (1966); the rat paw flexion test, described by Kuzuna et al., Chem. Pharm. Bull., 23, 1184-1191 (1975), Winter et al., J. Pharm. Exptl. Therap., 211, 678-685 (1979) and Capetola et al., J. Pharm. Exptl. Therap. 214, 16-23 (1980); and the mouse vas deferens adrenergic transmission test, described by Henderson et al., Brit. J. Pharmacol., 46, 764-766 (1972).
As before, the compounds are identified by the example number above where their preparations are described.

[1] = system: acetylcholine-induced abdominal constriction; experiment: acetylcholine-induced abdominal constriction test (ACH); assay type: in vivo, mice; conditions: for ACH percent inhibition: p.o.
Source text: as §1
In the acetylcholine-induced abdominal constriction test, the test compounds were administered either as suspensions in gum tragacanth (GT) or as aqueous solutions prepared by addition of just sufficient dilute aqueous methanesulfonic acid (MS) or dilute aqueous lactic acid (LA) to dissolve the compound The compounds are identified by the example number above where their preparations are described All data in the anti-bradykinin, rat writhing and Randall-Selitto tests were obtained on oral administration.

[2] = dose level 100, suspension in gum tragacanth (GT)

## COc1ccc(C(=O)c2c(C)n3c4c(cccc24)OCC3CN2CCOCC2)cc1 (single isomer, unassigned; (+)) [2H(d)]
Mouse vas deferens
  IC50: 44 ± 13 nM

## Cc1c(C(=O)c2cccc3c(Br)cc(Br)cc23)c2cccc3c2n1C(CN1CCOCC1)CO3 (single isomer, unassigned; (+)) [Example 2G, (+)-3-(4-morpholinylmethyl)-5-methyl-6-(5,7-dibromo-1-naphthylcarbonyl)-2,3-dihydropyrrolo[1,2,3-de]-1,4-benzoxazine]
Mouse vas deferens
  IC50: 40 ± 5.4 nM

## COc1ccc(C(=O)c2c(C)n3c4c(cccc24)OCC3CN2CCOCC2)cc1 (single isomer, unassigned; (-)) [2H(1), (-)-3-(4-morpholinylmethyl)-5-methyl-6-(4-methoxybenzoyl) -2,3-dihydropyrrolo[1,2,3-de]-1,4-benzoxazine]
Mouse vas deferens
  MVD percent inhibition: 44%
  IC50: > 10000 nM

## Cc1c(C(=O)c2cccc3ccccc23)c2cccc3c2n1C(CN1CCOCC1)CO3 (stereo not shown) [1B (CH3 SO3 H), 3-(4-morpholinylmethyl)-5-methyl-6-(1-naphthylcarbonyl)-2,3-dihydropyrrolo1,2,3-de]-1,4-benzoxazine methanesulfonate]
Mouse vas deferens
  IC50: 6 ± 0.6 nM

## Cc1c(C(=O)c2cccc3ccccc23)c2cccc3c2n1C(CN1CCOCC1)CO3 (stereo not shown) [1B (base)]
Mouse vas deferens
  IC50: 4 ± 2 nM

## CCc1c(C(=O)c2ccc(OC)cc2)c2cccc3c2n1C(CN1CCOCC1)CO3 (stereo not shown) [Example 2A, 3-(4-morpholinylmethyl)-5-ethyl-6-(4-methoxybenzoyl)-2,3-dihydropyrrolo[1,2,3-de]-1,4-benzoxazine]
[1]; [2]
  ACH percent inhibition: 20%
Mouse vas deferens
  MVD percent inhibition: 27%
  IC50: > 10000 nM

## CS(=O)(=O)O.Cc1c(C(=O)c2ccccc2F)c2cccc3c2n1C(CN1CCOCC1)CO3 (stereo not shown) [Example 2D, 3-(4-morpholinylmethyl)-5-methyl-6-(2-fluorobenzoyl)-2,3-dihydropyrrolo[1,2,3-de]-1,4-benzoxazine methanesulfonate]
[1]; Mus musculus, iv
  ED50: 2 mg/kg
[1]; dose level 100, aqueous methanesulfonic acid (MS)
  ACH percent inhibition: 30%
Mouse vas deferens
  IC50: 76 ± 4 nM

## CS(=O)(=O)O.Cc1c(C(=O)c2ccc(Br)c3ccccc23)c2cccc3c2n1C(CN1CCOCC1)CO3 (stereo not shown) [Example 2E, 3-(4-morpholinylmethyl)-5-methyl-6-(4-bromo-1-naphthylcarbonyl)-2,3-dihydropyrrolo[1,2,3-de]-1,4-benzoxazine methanesulfonate]
[1]; dose level 100, aqueous lactic acid (LA)
  ACH percent inhibition: 0%
[1]; [2]
  ACH percent inhibition: 35%
Mouse vas deferens
  IC50: 2.2 ± 0.2 nM

## O=C(c1cccc2ccccc12)c1cn2c3c(cccc13)OCC2CN1CCOCC1 (stereo not shown) [Example 2F]
[1]; [2]
  ACH percent inhibition: 10%
Mouse vas deferens
  IC50: 2 ± 0.03 nM

## Cc1c(C(=O)c2cccc3ccccc23)c2cccc3c2n1CC(CN1CCOCC1)O3 (stereo not shown) [Example 2I, 2-(4-morpholinylmethyl)-5-methyl-6-(1-naphthylcarbonyl-2,3-dihydropyrrolo1,2,3-de]-1,4-benzoxazine]
Mouse vas deferens
  IC50: 4 ± 2 nM

## (-)-3-(4-morpholinylmethyl)-5-methyl-6-(5,7-dibromonaphthylcarbonyl)-2,3-dihydropyrrolo[1,2,3-de]-1,4-benzoxazine methanesulfonate [Example 1E]
Mouse vas deferens
  IC50: 2620 ± 1700 nM
